Among the data in PubChem BioAssay (NCI) are TGI and GI50 values, retold here.

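Grown in 96-well plates, cells were treated for 48 hours with each compound at five concentrations. Insufficient inhibition: endpoint recorded as highest concentration tested. GI50 = concentration required for 50% inhibition of growth. TGI is the concentration that stops growth completely.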

What all share (experiment): inhibition of tumour cell growth, NCI panel, 48 h
For experiment [1], the system named is SK-MEL-28 melanoma.
Experiment [2] has as its system RPMI-8226 leukemia.
Experiment [3] deals with MOLT-4 leukemia.
The test system of experiment [4] is U251 CNS.
For experiment [5], the system named is 786-0 renal.
Experiment [6] relates to SF-295 CNS.
The subject of experiment [7] is OVCAR-5 ovarian.
Experiment [8] relates to K-562 leukemia.
Experiment [9] has as its system OVCAR-4 ovarian.
Experiment [10] concerns HCC-2998 colon.

For `OCCCNCc1ccccn1`, the TGI in experiment [1], in experiment [2], in experiment [3], in [4], in experiment [5] and in [6] was above 100 µM in each case. The TGI in experiment [7], in [8] and in experiment [9] was above 100 µM throughout.
On to `COc1cccc2c1C1=CC(=O)CCC1C(C)(C)O2` (stereo not drawn), for which the TGI in experiment [1] was above 100 µM; in experiment [2], 50.4 µM; in experiment [3] it was above 100 µM; in [4] it was above 100 µM; in experiment [5], above 100 µM; in experiment [6] it was above 100 µM. The TGI in [7], in experiment [8] and in experiment [9] was above 100 µM throughout.
`OC1CCC(C2C3CCCCC3C3CCCCC3C2C2CCC(O)CC2)CC1` (stereo not drawn): the TGI in experiment [1] is 9.59 µM; in [2] it was 59.1 µM; in experiment [3], above 100 µM; in experiment [4] it was 14 µM; in [5] it was above 100 µM; in experiment [6] it was 27.3 µM. Further, the TGI in [7] is above 100 µM; in experiment [8] it was above 100 µM; in [9], 16 µM.
In the case of `CCCCCCCCCCCCC(SCCNC(=O)CCNC(=O)C(O)C(C)(C)COP(=O)(O)OP(=O)(O)OCC1OC(n2cnc3c(N)ncnc32)C(O)C1OP(=O)(O)O)C(=O)NCC(N)=O` (stereo not drawn), the TGI in experiment [1], in experiment [4], in [5], in experiment [6], in experiment [7] and in experiment [10] was above 100 µM throughout. This compound also showed a TGI in experiment [9] above 100 µM.
In the case of `Cn1cc(NC(=O)c2cc(NC(=O)CCCCCC(=O)Nc3cc(C(=O)Nc4cc(C(=O)NCCC(=N)N)n(C)c4)n(C)c3)cn2C)cc1C(=O)NCCC(=N)N`, the TGI in [1], in experiment [4], in [5], in experiment [6], in experiment [7] and in experiment [10] was above 100 µM throughout. Moreover, the TGI in experiment [8] and in experiment [9] was above 100 µM in each case.
With `C=C1C(O)C2C(=C(CC(C)C)C13CC3)C(=O)C(C)(C)C2OC` (stereo not drawn), the GI50 in experiment [1] is above 100 µM; in experiment [2] it was 65.3 µM; in experiment [3] it was 24.2 µM; in experiment [4] it was above 100 µM; in [5], above 100 µM; in [6], above 100 µM. For the same compound, the GI50 in experiment [7] is above 100 µM; in experiment [8] it was 81.5 µM; in [9] it was above 100 µM. In addition, the TGI was above 100 µM in experiment [1]; above 100 µM in [2]; 66.8 µM in experiment [3]; above 100 µM in [4]; above 100 µM in experiment [5]; above 100 µM in experiment [6]. Besides, the TGI in experiment [7], in experiment [8] and in [9] was above 100 µM in each case.
With `CCCCCCCCCCCC(=O)C1=C(O)C(O)CCC1=O` (stereo not drawn), the TGI is 38.6 µM in experiment [1]; 60.3 µM in experiment [3]; 55.5 µM in [4]; above 100 µM in [5]; 30.5 µM in experiment [6]; 80.2 µM in [7]. Besides, the TGI in experiment [10] is 52.9 µM; in [8] it was 43 µM; in experiment [9], 90.8 µM.
Regarding `CCOC(=O)c1c2ccc(/C=C/C(=O)OC)ccc-2c(C(=O)OCC)c1N`, the TGI in experiment [1] was 8.42 µM; in experiment [3], above 100 µM; in experiment [5], above 100 µM; in experiment [6], above 100 µM; in experiment [7], above 100 µM; in experiment [10] it was above 100 µM. For the same compound, the TGI in [8] and in [9] was above 100 µM throughout.
With `O=C(O)c1nnsc1COCc1ccccc1`, the TGI in experiment [1], in experiment [2], in experiment [3], in experiment [4], in [5] and in experiment [6] was above 100 µM throughout. Further, the TGI in [7], in [8] and in experiment [9] was above 100 µM throughout.
With `N#C/C(=C(\O)C(=O)O)c1ccc(-c2cccc3ccccc23)cc1`, the TGI is above 100 µM in experiment [1]; above 100 µM in [2]; 12.2 µM in [3]; above 100 µM in experiment [4]; above 100 µM in [5]; above 100 µM in experiment [6]. The TGI in experiment [7], in [8] and in [9] was above 100 µM throughout.
On to `O=C(O)C(Cc1ccc(O)c([N+](=O)[O-])c1)N1C(=O)c2ccccc2C1=O` (stereo not drawn), for which the TGI in experiment [1], in experiment [2], in [3], in [4], in [5] and in experiment [6] was above 100 µM each time. Also, the TGI in [7], in experiment [8] and in experiment [9] was above 100 µM in each case.
Turning to `CN(C)CCNC(=O)c1cccc(CO)c1[N+](=O)[O-]`, the TGI in [1], in experiment [3], in [4], in experiment [5], in experiment [6] and in [7] was above 100 µM each time. The TGI in experiment [10] and in experiment [8] was above 100 µM throughout.
`Cn1c(=O)c2c(nc3n2CCC(=O)N3)n(C)c1=O`: the TGI in experiment [1], in experiment [3], in [4], in [5], in experiment [6] and in experiment [7] was above 100 µM throughout. For the same compound, the TGI in [8] and in experiment [9] was above 100 µM each time.
For `O=C1OCC2=Nc3cccc4cccc(c34)N12`, the TGI in experiment [1], in [3], in experiment [4], in [5], in experiment [6] and in experiment [10] was above 100 µM each time. For the same compound, the TGI in experiment [8] and in [9] was above 100 µM in each case.
